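Protocol summary: plate cells (96-well), add compound at 5 concentrations, incubate 48 h, interpolate endpoints linearly. GI50: concentration for 50% inhibition of growth. TGI: total growth inhibition.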
Tests used:
Test in all cases: growth of human tumour cells (NCI), 48 h
NCI-H23 lung = tested on: NCI-H23 lung
UACC-257 melanoma = tested on: UACC-257 melanoma
BT-549 breast = tested on: BT-549 breast
SNB-75 CNS = tested on: SNB-75 CNS
M14 melanoma = tested on: M14 melanoma
HCT-15 colon = tested on: HCT-15 colon
786-0 renal = tested on: 786-0 renal
MALME-3M melanoma = tested on: MALME-3M melanoma
HL-60(TB) leukemia = tested on: HL-60(TB) leukemia
SK-MEL-28 melanoma = tested on: SK-MEL-28 melanoma

COc1cc2c3c(c4ccc(OC)c(OC)c4c2cc1OC)CN1CCC[C@@H]1C3
TGI (NCI-H23 lung): 0.637 µM
TGI (UACC-257 melanoma): 17.7 µM
TGI (BT-549 breast): 2.36 µM
TGI (SNB-75 CNS): 0.0947 µM
TGI (M14 melanoma): 2.56 µM
TGI (HCT-15 colon): 11.4 µM
TGI (786-0 renal): 1.78 µM
TGI (MALME-3M melanoma): 0.509 µM
TGI (HL-60(TB) leukemia): 0.577 µM
TGI (SK-MEL-28 melanoma): 7.43 µM

CNC(=O)c1c(NC(=O)c2ccc(C(F)(F)F)cc2)sc2c1CCC(=O)C2
GI50 (NCI-H23 lung): 0.418 µM
TGI (NCI-H23 lung): 5.9 µM
GI50 (UACC-257 melanoma): 1.73 µM
TGI (UACC-257 melanoma): 6.22 µM
GI50 (BT-549 breast): 0.366 µM
TGI (BT-549 breast): 3.72 µM
GI50 (SNB-75 CNS): 0.714 µM
TGI (SNB-75 CNS): 3.95 µM
GI50 (M14 melanoma): 0.508 µM
TGI (M14 melanoma): 3.77 µM
GI50 (HCT-15 colon): 0.239 µM
TGI (HCT-15 colon): 1.76 µM
GI50 (786-0 renal): 0.415 µM
TGI (786-0 renal): 15.1 µM
GI50 (MALME-3M melanoma): 1.11 µM
TGI (MALME-3M melanoma): 3.88 µM
GI50 (HL-60(TB) leukemia): 0.363 µM
TGI (HL-60(TB) leukemia): 2.09 µM
GI50 (SK-MEL-28 melanoma): 0.864 µM
TGI (SK-MEL-28 melanoma): 3.67 µM

CCN(CC)CC.CCOc1ccc(NC(=O)N=C=[N-])cc1.[CH-]1CCCCC1.[CH-]1CCCCC1.[CH-]1CCCCC1.[Cl-].[Sn+4]
GI50 (NCI-H23 lung): 0.0312 µM
TGI (NCI-H23 lung): 0.0882 µM
GI50 (UACC-257 melanoma): 0.0389 µM
TGI (UACC-257 melanoma): 0.12 µM
GI50 (BT-549 breast): 0.149 µM
TGI (BT-549 breast): 0.292 µM
GI50 (SNB-75 CNS): 0.0244 µM
TGI (SNB-75 CNS): 0.108 µM
GI50 (M14 melanoma): 0.0264 µM
TGI (M14 melanoma): 0.0727 µM
GI50 (HCT-15 colon): 0.0198 µM
TGI (HCT-15 colon): 0.0555 µM
GI50 (786-0 renal): 0.0157 µM
TGI (786-0 renal): 0.0372 µM
GI50 (MALME-3M melanoma): 0.0452 µM
TGI (MALME-3M melanoma): 0.119 µM
GI50 (HL-60(TB) leukemia): 0.0184 µM
TGI (HL-60(TB) leukemia): 0.0584 µM
GI50 (SK-MEL-28 melanoma): 0.0349 µM
TGI (SK-MEL-28 melanoma): 0.088 µM

COc1cccc(Cn2c(-c3nonc3N)nc3ccccc32)c1
GI50 (NCI-H23 lung): 0.717 µM
TGI (NCI-H23 lung): > 100 µM
GI50 (UACC-257 melanoma): 0.314 µM
TGI (UACC-257 melanoma): > 100 µM
GI50 (BT-549 breast): 0.365 µM
TGI (BT-549 breast): 68.5 µM
GI50 (SNB-75 CNS): 0.225 µM
TGI (SNB-75 CNS): 2.02 µM
GI50 (M14 melanoma): 0.532 µM
TGI (M14 melanoma): > 100 µM
GI50 (HCT-15 colon): 0.399 µM
TGI (HCT-15 colon): > 100 µM
GI50 (786-0 renal): 0.569 µM
TGI (786-0 renal): > 100 µM
GI50 (MALME-3M melanoma): 0.425 µM
TGI (MALME-3M melanoma): > 95.1 µM
GI50 (HL-60(TB) leukemia): 0.298 µM
TGI (HL-60(TB) leukemia): 13.8 µM
GI50 (SK-MEL-28 melanoma): 0.781 µM
TGI (SK-MEL-28 melanoma): > 91.8 µM

CN[C@@H](C)C(=O)N[C@H]1CN(C(=O)CC(C)C)CC[C@H]2CC[C@@H](C(=O)NC(c3ccccc3)c3ccccc3)N2C1=O
GI50 (NCI-H23 lung): 27.6 µM
TGI (NCI-H23 lung): > 100 µM
GI50 (UACC-257 melanoma): > 74.3 µM
TGI (UACC-257 melanoma): > 100 µM
GI50 (BT-549 breast): 0.231 µM
TGI (BT-549 breast): > 100 µM
GI50 (SNB-75 CNS): 15.7 µM
TGI (SNB-75 CNS): > 100 µM
GI50 (M14 melanoma): > 100 µM
TGI (M14 melanoma): > 100 µM
GI50 (HCT-15 colon): > 100 µM
TGI (HCT-15 colon): > 100 µM
GI50 (786-0 renal): > 100 µM
TGI (786-0 renal): > 100 µM
GI50 (MALME-3M melanoma): 4.29 µM
TGI (MALME-3M melanoma): > 53.9 µM
GI50 (HL-60(TB) leukemia): 29.1 µM
TGI (HL-60(TB) leukemia): > 100 µM
GI50 (SK-MEL-28 melanoma): > 100 µM
TGI (SK-MEL-28 melanoma): > 100 µM

COC(=O)[C@H]1C(=O)[C@@]2(C)[C@H]([C@H](OC(=O)c3ccccc3)[C@]3(O)C[C@H](OC(=O)[C@H](O)[C@@H](NC(=O)c4ccc(F)cc4)c4ccccc4)C(C)=C1C3(C)C)[C@]1(OC(C)=O)CO[C@@H]1C[C@@H]2O
GI50 (NCI-H23 lung): 0.0202 µM
TGI (NCI-H23 lung): > 25 µM
GI50 (UACC-257 melanoma): 0.0673 µM
TGI (UACC-257 melanoma): > 25 µM
GI50 (BT-549 breast): 0.011 µM
TGI (BT-549 breast): 0.833 µM
GI50 (SNB-75 CNS): 0.00273 µM
TGI (SNB-75 CNS): 0.0443 µM
GI50 (M14 melanoma): 0.0114 µM
TGI (M14 melanoma): 0.105 µM
GI50 (HCT-15 colon): 0.553 µM
TGI (HCT-15 colon): > 25 µM
GI50 (786-0 renal): 0.0805 µM
GI50 (MALME-3M melanoma): 0.0187 µM
TGI (MALME-3M melanoma): > 25 µM
GI50 (HL-60(TB) leukemia): 0.00614 µM
TGI (HL-60(TB) leukemia): 0.0184 µM
GI50 (SK-MEL-28 melanoma): 0.0154 µM
TGI (SK-MEL-28 melanoma): 22 µM

C#CCSc1n[nH]c(-c2ccco2)n1
TGI (NCI-H23 lung): > 100 µM
TGI (UACC-257 melanoma): > 100 µM
TGI (BT-549 breast): > 100 µM
TGI (SNB-75 CNS): > 100 µM
TGI (M14 melanoma): > 100 µM
TGI (HCT-15 colon): > 100 µM
TGI (786-0 renal): > 100 µM
TGI (MALME-3M melanoma): > 100 µM
TGI (HL-60(TB) leukemia): > 100 µM
TGI (SK-MEL-28 melanoma): > 100 µM

COC(=O)[C@@]1(Cc2ccccc2)[C@H]2c3cc(C(=O)N4CCCC4)n(Cc4ccc(OC)c(OC)c4)c3C[C@H]2CN1C(=O)c1ccccc1
GI50 (NCI-H23 lung): 11.6 µM
TGI (NCI-H23 lung): 36.1 µM
GI50 (UACC-257 melanoma): 7.72 µM
TGI (UACC-257 melanoma): 15.2 µM
GI50 (BT-549 breast): 8.46 µM
TGI (BT-549 breast): 16.1 µM
GI50 (SNB-75 CNS): 17.4 µM
TGI (SNB-75 CNS): > 50 µM
GI50 (M14 melanoma): 11.5 µM
TGI (M14 melanoma): 25.7 µM
GI50 (HCT-15 colon): 7.77 µM
TGI (HCT-15 colon): 14.5 µM
GI50 (786-0 renal): 13.7 µM
TGI (786-0 renal): > 50 µM
GI50 (MALME-3M melanoma): 10.4 µM
TGI (MALME-3M melanoma): 21 µM
GI50 (HL-60(TB) leukemia): 8.96 µM
TGI (HL-60(TB) leukemia): 24.8 µM
GI50 (SK-MEL-28 melanoma): 10.1 µM
TGI (SK-MEL-28 melanoma): 21.7 µM

COc1ccc(-c2nsc3c2NC(=O)CC3c2ccc(F)cc2)cc1 (stereo not given)
GI50 (NCI-H23 lung): 6.1 µM
TGI (NCI-H23 lung): > 100 µM
GI50 (UACC-257 melanoma): 16.6 µM
TGI (UACC-257 melanoma): > 100 µM
GI50 (BT-549 breast): 7.72 µM
TGI (BT-549 breast): > 100 µM
GI50 (SNB-75 CNS): 2.35 µM
TGI (SNB-75 CNS): 15.7 µM
GI50 (M14 melanoma): 3.74 µM
TGI (M14 melanoma): > 100 µM
GI50 (HCT-15 colon): 2.16 µM
TGI (HCT-15 colon): > 100 µM
GI50 (786-0 renal): 15.2 µM
TGI (786-0 renal): > 100 µM
GI50 (MALME-3M melanoma): 10.3 µM
TGI (MALME-3M melanoma): > 100 µM
GI50 (HL-60(TB) leukemia): 0.598 µM
TGI (HL-60(TB) leukemia): > 21.1 µM
GI50 (SK-MEL-28 melanoma): 4.74 µM
TGI (SK-MEL-28 melanoma): > 100 µM

C[C@@H](N)C1CCC(C(=O)Nc2ccncc2)CC1 (stereo not given in full)
GI50 (NCI-H23 lung): > 100 µM
TGI (NCI-H23 lung): > 100 µM
GI50 (UACC-257 melanoma): > 100 µM
TGI (UACC-257 melanoma): > 100 µM
GI50 (BT-549 breast): > 88.4 µM
TGI (BT-549 breast): > 100 µM
GI50 (SNB-75 CNS): 5.58 µM
TGI (SNB-75 CNS): > 100 µM
GI50 (M14 melanoma): > 100 µM
TGI (M14 melanoma): > 100 µM
GI50 (HCT-15 colon): > 100 µM
TGI (HCT-15 colon): > 100 µM
GI50 (786-0 renal): > 100 µM
TGI (786-0 renal): > 100 µM
GI50 (MALME-3M melanoma): > 100 µM
TGI (MALME-3M melanoma): > 100 µM
GI50 (HL-60(TB) leukemia): > 100 µM
TGI (HL-60(TB) leukemia): > 100 µM
GI50 (SK-MEL-28 melanoma): > 100 µM
TGI (SK-MEL-28 melanoma): > 100 µM

Fc1ccc(-c2nn3c(CNc4ccccc4)nnc3s2)cc1
GI50 (NCI-H23 lung): 27.2 µM
TGI (NCI-H23 lung): > 100 µM
GI50 (UACC-257 melanoma): 36.2 µM
TGI (UACC-257 melanoma): > 100 µM
GI50 (BT-549 breast): 39.1 µM
TGI (BT-549 breast): > 100 µM
GI50 (SNB-75 CNS): 52.2 µM
TGI (SNB-75 CNS): > 100 µM
GI50 (M14 melanoma): 35.5 µM
TGI (M14 melanoma): > 100 µM
GI50 (HCT-15 colon): 45 µM
TGI (HCT-15 colon): > 100 µM
GI50 (786-0 renal): 56.2 µM
TGI (786-0 renal): > 100 µM
GI50 (MALME-3M melanoma): 21.2 µM
TGI (MALME-3M melanoma): 94.6 µM
GI50 (HL-60(TB) leukemia): > 100 µM
TGI (HL-60(TB) leukemia): > 100 µM
GI50 (SK-MEL-28 melanoma): 42.2 µM
TGI (SK-MEL-28 melanoma): > 100 µM

CO/[N+]([O-])=C\C(=O)N/C=C/C(=O)O
TGI (NCI-H23 lung): > 100 µM
TGI (UACC-257 melanoma): > 100 µM
TGI (BT-549 breast): > 100 µM
TGI (SNB-75 CNS): > 100 µM
TGI (M14 melanoma): > 100 µM
TGI (HCT-15 colon): > 100 µM
TGI (786-0 renal): > 100 µM
TGI (MALME-3M melanoma): > 100 µM
TGI (HL-60(TB) leukemia): > 100 µM
TGI (SK-MEL-28 melanoma): > 100 µM

C=CC(=O)N1C/C(=C\c2ccccc2)C(=O)/C(=C/c2ccccc2)C1
TGI (NCI-H23 lung): 5.43 µM
TGI (UACC-257 melanoma): 4.29 µM
TGI (BT-549 breast): 4.24 µM
TGI (SNB-75 CNS): 10 µM
TGI (M14 melanoma): 4.58 µM
TGI (HCT-15 colon): 4 µM
TGI (786-0 renal): 2.54 µM
TGI (MALME-3M melanoma): 4.87 µM
GI50 (HL-60(TB) leukemia): 0.805 µM
TGI (HL-60(TB) leukemia): 7.4 µM
TGI (SK-MEL-28 melanoma): 3.78 µM
